Measurements from article PMC4685510, “A Cell Biologist’s Field Guide to Aurora Kinase Inhibitors” (Frontiers in Oncology, 2015).

How the values were obtained:
Test in all cases: biochemical
Type in all cases: biochemical
[1] = biological target: T1, 363 human kinases (including Aurora A/B/C) (Homo sapiens, UniProt P36896); conditions: ALK4/ACVR1B, [ATP] 50 µM; for remaining activity at 0.1 µM: 100 nM; for remaining activity at 0.1 µM / remaining activity at 0.5 µM: read-out: % Enzyme Activity (relative to DMSO controls)
T1 sequence (P36896 24-505): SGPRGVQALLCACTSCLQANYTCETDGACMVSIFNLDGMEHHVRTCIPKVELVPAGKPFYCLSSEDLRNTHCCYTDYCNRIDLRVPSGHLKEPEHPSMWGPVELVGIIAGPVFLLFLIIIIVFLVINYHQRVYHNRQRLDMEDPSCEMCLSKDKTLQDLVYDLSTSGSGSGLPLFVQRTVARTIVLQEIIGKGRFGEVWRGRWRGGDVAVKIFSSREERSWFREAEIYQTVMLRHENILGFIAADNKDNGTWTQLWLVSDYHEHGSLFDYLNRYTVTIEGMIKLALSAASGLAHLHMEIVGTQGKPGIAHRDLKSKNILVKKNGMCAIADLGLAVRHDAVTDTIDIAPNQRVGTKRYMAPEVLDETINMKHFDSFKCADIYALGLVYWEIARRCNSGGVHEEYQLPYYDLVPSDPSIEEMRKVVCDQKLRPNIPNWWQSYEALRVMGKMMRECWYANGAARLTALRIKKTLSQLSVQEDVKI
Source text: (§1) However, the Aurora A/B selectivity ratios derived from our in vitro and in vivo data can be compared to prioritize inhibitors.

[2] = biological target: T2, 363 human kinases (including Aurora A/B/C) (Homo sapiens, UniProt Q13976); conditions: PKG1a; for remaining activity at 0.1 µM: 100 nM
T2 sequence (Q13976 1-671): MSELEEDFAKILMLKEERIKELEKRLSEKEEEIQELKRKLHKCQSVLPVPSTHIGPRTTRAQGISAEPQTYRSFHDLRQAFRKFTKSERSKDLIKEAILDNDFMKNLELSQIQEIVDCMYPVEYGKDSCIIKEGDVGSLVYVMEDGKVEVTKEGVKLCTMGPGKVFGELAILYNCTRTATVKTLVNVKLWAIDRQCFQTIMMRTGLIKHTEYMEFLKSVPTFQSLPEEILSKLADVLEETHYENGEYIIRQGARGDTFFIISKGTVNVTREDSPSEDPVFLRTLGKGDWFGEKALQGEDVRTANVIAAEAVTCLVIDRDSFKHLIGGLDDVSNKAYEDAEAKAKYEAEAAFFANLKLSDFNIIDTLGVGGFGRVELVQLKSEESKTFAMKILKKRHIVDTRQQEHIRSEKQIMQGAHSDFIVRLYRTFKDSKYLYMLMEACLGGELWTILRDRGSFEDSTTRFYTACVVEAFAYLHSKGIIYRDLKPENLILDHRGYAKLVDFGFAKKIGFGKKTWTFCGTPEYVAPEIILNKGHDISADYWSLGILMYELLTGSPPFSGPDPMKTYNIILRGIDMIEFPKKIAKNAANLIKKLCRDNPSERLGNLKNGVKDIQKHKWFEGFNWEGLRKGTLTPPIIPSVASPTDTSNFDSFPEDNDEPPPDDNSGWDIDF
Source text: as §1

[3] = biological target: 363 human kinases (including Aurora A/B/C) (Homo sapiens, UniProt Q16288); conditions: TRKC; for remaining activity at 0.1 µM: 100 nM
Source text: as §1

[4] = biological target: T3, 363 human kinases (including Aurora A/B/C) (Homo sapiens, UniProt Q8TD08); conditions: ERK7/MAPK15, [ATP] 10 µM; for remaining activity at 0.1 µM: 100 nM; for remaining activity at 0.1 µM / remaining activity at 0.5 µM: read-out: % Enzyme Activity (relative to DMSO controls)
T3 sequence (Q8TD08 1-544): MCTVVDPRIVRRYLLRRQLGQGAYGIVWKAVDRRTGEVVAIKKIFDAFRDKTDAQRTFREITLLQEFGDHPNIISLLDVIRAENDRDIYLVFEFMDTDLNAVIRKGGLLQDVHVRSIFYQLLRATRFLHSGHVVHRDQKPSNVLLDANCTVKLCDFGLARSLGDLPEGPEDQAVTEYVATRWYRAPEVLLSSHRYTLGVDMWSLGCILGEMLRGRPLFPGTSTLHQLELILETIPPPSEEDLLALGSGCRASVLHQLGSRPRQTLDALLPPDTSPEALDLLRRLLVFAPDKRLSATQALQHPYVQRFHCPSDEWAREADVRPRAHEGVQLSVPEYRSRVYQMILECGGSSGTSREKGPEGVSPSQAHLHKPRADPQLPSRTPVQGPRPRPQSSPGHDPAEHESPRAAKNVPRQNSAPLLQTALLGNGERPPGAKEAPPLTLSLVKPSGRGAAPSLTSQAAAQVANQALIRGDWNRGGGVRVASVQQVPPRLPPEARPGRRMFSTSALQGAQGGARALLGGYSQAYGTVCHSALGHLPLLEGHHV
Source text: as §1

[5] = biological target: 363 human kinases (including Aurora A/B/C) (Homo sapiens, UniProt P50613); conditions: CDK7/cyclin H, [ATP] 50 µM; for remaining activity at 0.1 µM: 100 nM; for remaining activity at 0.1 µM / remaining activity at 0.5 µM: read-out: % Enzyme Activity (relative to DMSO controls)
Source text: as §1

[6] = biological target: T4, 363 human kinases (including Aurora A/B/C) (Homo sapiens, UniProt Q8TDC3); conditions: BRSK1, [ATP] 50 µM; for remaining activity at 0.1 µM: 100 nM; for remaining activity at 0.1 µM / remaining activity at 0.5 µM: read-out: % Enzyme Activity (relative to DMSO controls)
T4 sequence (Q8TDC3 1-778): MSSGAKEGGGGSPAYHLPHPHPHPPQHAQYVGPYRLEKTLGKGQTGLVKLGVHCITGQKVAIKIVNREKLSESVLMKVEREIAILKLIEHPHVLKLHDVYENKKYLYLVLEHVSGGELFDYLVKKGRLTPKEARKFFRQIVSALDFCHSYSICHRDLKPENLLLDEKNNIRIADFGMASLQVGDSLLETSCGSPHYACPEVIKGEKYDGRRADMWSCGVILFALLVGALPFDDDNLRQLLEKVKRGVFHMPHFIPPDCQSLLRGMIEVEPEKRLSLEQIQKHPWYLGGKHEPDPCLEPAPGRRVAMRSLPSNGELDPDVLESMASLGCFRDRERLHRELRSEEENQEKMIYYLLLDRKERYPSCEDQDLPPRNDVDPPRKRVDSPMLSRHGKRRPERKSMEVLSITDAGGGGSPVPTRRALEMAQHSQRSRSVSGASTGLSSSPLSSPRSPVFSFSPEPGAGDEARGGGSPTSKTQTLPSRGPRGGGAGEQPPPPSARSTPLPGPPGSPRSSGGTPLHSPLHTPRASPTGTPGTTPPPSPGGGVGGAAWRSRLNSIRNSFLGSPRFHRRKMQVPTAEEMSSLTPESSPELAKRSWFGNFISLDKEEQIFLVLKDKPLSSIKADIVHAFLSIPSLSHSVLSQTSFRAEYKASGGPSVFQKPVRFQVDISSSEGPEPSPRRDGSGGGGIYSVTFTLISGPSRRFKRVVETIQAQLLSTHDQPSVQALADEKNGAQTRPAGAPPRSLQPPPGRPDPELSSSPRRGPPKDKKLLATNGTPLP
Source text: as §1

[7] = biological target: 363 human kinases (including Aurora A/B/C) (Homo sapiens, UniProt O43293); conditions: ZIPK/DAPK3; for remaining activity at 0.1 µM: 100 nM; for remaining activity at 0.1 µM / remaining activity at 0.5 µM: read-out: % Enzyme Activity (relative to DMSO controls)
Source text: as §1

[8] = read-out: % Enzyme Activity (relative to DMSO controls)
[9] = 500 nM, read-out: % Enzyme Activity (relative to DMSO controls)

Chain of 363 human kinases (including Aurora A/B/C) (Homo sapiens, UniProt P50613) (P50613 whole entry): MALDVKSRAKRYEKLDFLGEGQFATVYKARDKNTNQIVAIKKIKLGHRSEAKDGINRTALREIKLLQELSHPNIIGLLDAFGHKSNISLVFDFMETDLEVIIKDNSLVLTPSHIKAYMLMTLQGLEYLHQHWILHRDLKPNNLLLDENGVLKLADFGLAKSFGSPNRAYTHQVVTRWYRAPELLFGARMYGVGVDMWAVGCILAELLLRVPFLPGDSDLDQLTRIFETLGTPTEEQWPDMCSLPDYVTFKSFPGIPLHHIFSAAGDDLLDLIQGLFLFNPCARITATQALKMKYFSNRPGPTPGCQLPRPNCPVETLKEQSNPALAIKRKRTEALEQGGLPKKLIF
Chain of 363 human kinases (including Aurora A/B/C) (Homo sapiens, UniProt O43293) (O43293 whole entry): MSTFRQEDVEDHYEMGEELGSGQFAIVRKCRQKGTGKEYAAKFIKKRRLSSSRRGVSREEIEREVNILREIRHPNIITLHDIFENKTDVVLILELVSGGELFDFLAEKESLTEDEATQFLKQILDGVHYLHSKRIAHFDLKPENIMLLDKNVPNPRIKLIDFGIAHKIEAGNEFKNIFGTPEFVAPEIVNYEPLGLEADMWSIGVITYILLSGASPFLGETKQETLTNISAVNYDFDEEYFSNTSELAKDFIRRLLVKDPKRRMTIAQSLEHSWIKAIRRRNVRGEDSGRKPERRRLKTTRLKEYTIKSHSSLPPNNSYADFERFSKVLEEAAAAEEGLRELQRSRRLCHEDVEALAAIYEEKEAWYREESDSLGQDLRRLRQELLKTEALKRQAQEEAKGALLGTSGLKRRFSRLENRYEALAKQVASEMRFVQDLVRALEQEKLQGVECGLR
Chain of 363 human kinases (including Aurora A/B/C) (Homo sapiens, UniProt Q16288) (Q16288 32-839): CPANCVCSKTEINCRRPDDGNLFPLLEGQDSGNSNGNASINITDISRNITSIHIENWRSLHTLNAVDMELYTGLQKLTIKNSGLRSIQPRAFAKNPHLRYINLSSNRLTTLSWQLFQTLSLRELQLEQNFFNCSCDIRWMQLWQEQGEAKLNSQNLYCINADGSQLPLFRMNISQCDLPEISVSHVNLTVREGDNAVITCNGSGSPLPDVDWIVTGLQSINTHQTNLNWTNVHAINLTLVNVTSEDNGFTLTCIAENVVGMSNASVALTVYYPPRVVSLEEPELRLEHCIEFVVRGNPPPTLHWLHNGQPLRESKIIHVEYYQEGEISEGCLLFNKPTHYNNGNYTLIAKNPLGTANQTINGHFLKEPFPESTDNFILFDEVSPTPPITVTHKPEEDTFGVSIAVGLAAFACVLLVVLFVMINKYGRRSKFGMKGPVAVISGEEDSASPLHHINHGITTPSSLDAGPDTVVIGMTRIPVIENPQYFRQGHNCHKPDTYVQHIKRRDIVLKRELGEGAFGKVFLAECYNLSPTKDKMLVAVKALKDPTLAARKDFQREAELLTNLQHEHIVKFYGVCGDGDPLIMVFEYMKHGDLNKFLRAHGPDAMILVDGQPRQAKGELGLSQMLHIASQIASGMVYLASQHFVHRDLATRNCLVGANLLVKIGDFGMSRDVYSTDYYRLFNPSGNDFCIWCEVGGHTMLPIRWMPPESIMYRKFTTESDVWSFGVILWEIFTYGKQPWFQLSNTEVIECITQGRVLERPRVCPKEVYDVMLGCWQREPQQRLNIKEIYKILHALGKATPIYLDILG

Structure (SMILES)	remaining activity at 0.1 µM [1]	remaining activity at 0.1 µM [2, 8]	remaining activity at 0.1 µM [3, 8]	remaining activity at 0.1 µM [4]	remaining activity at 0.1 µM [5]	remaining activity at 0.1 µM [6]	remaining activity at 0.1 µM [7]	remaining activity at 0.5 µM ([1]; 500 nM)	remaining activity at 0.5 µM ([4]; 500 nM)	remaining activity at 0.5 µM ([5]; 500 nM)	remaining activity at 0.5 µM ([6]; 500 nM)	remaining activity at 0.5 µM ([7]; 500 nM)	also measured
CCn1cc(-c2ccnc3[nH]c(-c4cccc(CN(C)C)c4)cc23)c(-c2ccc(NC(=O)N(C)C)cc2)n1 [GSK1070916]	102%	126%	78.6%	102%	109%	85.9%	91.4%	–	–	–	–	–	–
O=C(c1cccc(Cl)c1F)N1CCN(Cc2cccc(Nc3nccs3)n2)CC1 [MK-8745]	–	–	–	–	–	–	–	137%	92.2%	110%	98.2%	95.5%	% Enzyme Activity (relative to DMSO controls) ([1]; 500 nM): 133.43%; % Enzyme Activity (relative to DMSO controls) ([2]; 500 nM): 94.34%; remaining activity at 0.5 µM [2, 9]: 95.4%; % Enzyme Activity (relative to DMSO controls) ([3]; 500 nM): 3.01%; remaining activity at 0.5 µM [3, 9]: 3.12%; % Enzyme Activity (relative to DMSO controls) ([4]; 500 nM): 85.14%; % Enzyme Activity (relative to DMSO controls) ([5]; 500 nM): 107.62%; % Enzyme Activity (relative to DMSO controls) ([6]; 500 nM): 97.71%; % Enzyme Activity (relative to DMSO controls) ([7]; 500 nM): 93.58%
O=C(O)[C@]1(Cc2cccc(Nc3nccs3)n2)CC[C@@H](Oc2cccc(Cl)c2F)CC1 [MK-5108]	106%	122%	0.99%	83.7%	95.9%	95.8%	97.8%	92.9%	64.2%	112%	82.2%	92.6%	–
